Laboratory results as given in ChEMBL document CHEMBL3507680, “University of Dundee, Gates Library screen for HepG2 cell viability”.

Test: Human HepG2 cell viability assay in 384 well format
Type: toxicity, cell-based
Set-up: dose 125 nL, time 70.5 hour; concentration not given beside the values
Details: HepG2 cells, read-out: Inhibition

| Compound | cytotoxicity at 70.5 h [%] |
| --- | --- |
| OCCN1CCN(Cc2cn(-c3ccccc3)nn2)CC1 | -11.9 |
| Cc1nn(C)c(C)c1C1CCCN1CCCC#N (centres undefined) | -4.71 |
| CCc1ccc(CN2CCC3(CC2)CNC(=O)CO3)o1 | -3.42 |
| CC(Cn1cccn1)NC(=O)Nc1ccc(N2CCCC2)nc1 (centres undefined) | 10.1 |
| CO[C@H]1CCN(S(=O)(=O)c2cn(C)cn2)[C@H]1Cc1cccnc1 | -22.4 |
| COCCn1cnc2c(F)cc(Br)cc2c1=O | -3.14 |
| CC1(C)CN(C(=O)c2ccccc2-n2cncn2)CC1(C)O (centres undefined) | 18.2 |
| N#Cc1c(F)cccc1N1CCN(C(=O)Nc2nncs2)CC1 | 11.5 |
| Cn1ncnc1CNc1ccccc1C(=O)NC(C)(C)C | -100 |
| Cc1ccc(C(=O)N2CCCN(Cc3cscn3)CC2)o1 | -6.95 |
| COCC1CN(Cc2ccoc2)Cc2cn(CC3CCCC3)nc21 (centres undefined) | -4.4 |
| CSc1ncc(Cl)c(C(=O)NC(Cc2ccccc2)C(=O)O)n1 (centres undefined) | 15 |
| COc1ccc(CC2CN(Cc3cncn3C)CCO2)cc1 (centres undefined) | -9.57 |
| COC(=O)CCNC(=O)c1ccc(NC(=O)N(C)CC(C)(C)C)cc1 | -6.05 |
| O=C1Nc2ccccc2/C1=C1\CCCCCN1 | -9.34 |
| CNC(=O)N1CCOCC1c1c(C)nn(C)c1C (centres undefined) | 2.35 |
| CC(CC(=O)NCCNS(C)(=O)=O)C1CCCCC1 (centres undefined) | -13.2 |
| COCCc1noc(-c2cn(CCc3ccccc3)nn2)n1 | 2.44 |
| Cc1cc(C)c(CNC(=O)NCCc2cccnc2)c(=O)[nH]1 | -10.1 |
| CC(C)(C)c1nc(CN(Cc2ccccc2Cl)C2CCCC2)no1 | -2.25 |
| Cc1cc(N2CCN(Cc3ccsc3)C(CCO)C2)nc(N)n1 (centres undefined) | -6.22 |

| Compound | cytotoxicity at 70.5 h [%] |
| --- | --- |
| OCCN(Cc1cccnc1)c1ccc(Cl)cn1 | -2.8 |
| Cc1cccc(C(=O)N2CCCC(c3nccn3Cc3cscn3)C2)n1 (centres undefined) | -5.05 |
| COCc1ccccc1NC(=O)[C@@H]1CCCN1C(=O)c1ccco1 | -8.02 |
| COc1ccc(CNCc2ccnc(N3CCCCC3)c2)cc1OC | -4.98 |
| O=C(NCCNC(=O)C1CCN(c2ncccn2)CC1)c1ccoc1 | 6.55 |
| CCNCCC(Cc1ccccc1)c1ccco1 (centres undefined) | -8.72 |
| COc1ccc2c(c1)C1(CCN(Cc3nccs3)CC1)N(C)CC2 | 5.77 |
| COCCNc1nc(NCCc2ccccc2)nc2nccnc12 | -1.44 |
| Cc1noc(OCC(=O)N2CCCCC2C)n1 (centres undefined) | -3.19 |
| COc1cccc(CNC(=O)CC2CSc3ncc(C)c(=O)n32)c1 (centres undefined) | 10.1 |
| COC(=O)Cn1c(=O)nc2n1C(=O)N(c1ccc(Br)cc1)C2 | 10.9 |
| CN(C)Cc1cc(CC2(NCc3ccccc3Cl)COC2)no1 | -2.7 |
| CC(=O)N1CCC(c2ncc(C(=O)Nc3ccccc3)c(C)n2)CC1 | -4.36 |
| COc1ncccc1NC(=O)C1CCS(=O)(=O)C1 (centres undefined) | -15.1 |
| CCN1CC(COc2ccccc2)Oc2ncccc2S1(=O)=O (centres undefined) | -3.66 |
| Cc1c(NC(=O)NCCO)cccc1OC1CCCC1 | -8.09 |
| O=C(NCC1CCCO1)c1coc(Cn2cnc3ccccc32)n1 (centres undefined) | -4.46 |
| CC(C)CN1CCn2c(COCc3cccnc3)nnc2C1 | -4.01 |
| O=C(CC1CC1)N1CCCn2c(nnc2Cn2cccc2)C1 | -4.38 |
| CC(=O)NCCC(=O)NC(C)c1sc(-c2ccccc2F)nc1C (centres undefined) | -5.17 |
| CCn1ccnc1CN1CCCN(C(=O)c2cnc(C)cn2)CC1 | -5.42 |

| Compound | cytotoxicity at 70.5 h [%] |
| --- | --- |
| Cn1nccc1C(=O)N1C[C@@H]2CC[C@H](Oc3cccc(F)c3)[C@@H]2C1 | -3.82 |
| O=C(Nc1cc[nH]n1)c1ccc(COCC(F)(F)F)cc1 | -4 |
| CCc1nn(-c2cc(Oc3cccc(C)c3)nc(C)n2)c(N)c1C#N | -8.17 |
| CCn1cc(Cn2cc(Cl)c(N)n2)c(C)n1 | -2.35 |
| CCc1nc(CN(C)C2CCN(Cc3nnc(C4CCC4)o3)C2)no1 (centres undefined) | -0.232 |
| COc1nccnc1N1CCC2(CCCN(C(C)C)C2=O)C1 (centres undefined) | -4.89 |
| O=C(NCCCNc1ccc(C(F)(F)F)cn1)c1ccccc1 | -8.08 |
| CN(C)CCNC(=O)c1ccc(OC2CCN(C(=O)CO)CC2)c(Cl)c1 | -7.98 |
| COCc1nc2cc(NCc3ccncc3)ccc2o1 | 16.6 |
| CC(C)c1cc(C(=O)N2CCOC3(CCNCC3)C2)no1 | -5.65 |
| Cn1cc(CN2CCOC(c3cccc(-c4cncnc4)n3)C2)cn1 (centres undefined) | -5.7 |
| Cc1ccc(CNC(c2cccc(F)c2)c2nccn2C)o1 (centres undefined) | -3 |
| Cc1nn(C)c(N(C)C)c1CNCc1ccc(Cn2cncn2)cc1 | 22.4 |
| CC(C)COC(=O)N1CCCN(C(C)c2nc(C(C)C)no2)CC1 (centres undefined) | -3.98 |
| CC1c2ncc(COCC3CCOCC3)n2CCN1C(=O)c1ccco1 (centres undefined) | -10.5 |
| CCN1N=C(C(=O)N2CCCC(c3noc(C)n3)C2)CCC1=O (centres undefined) | 22.2 |
| Cc1cnn(C2CCCN(C(=O)c3sccc3-n3cnnn3)C2)c1 (centres undefined) | -2.63 |
| Cn1cc(CN2C[C@@H]3CCCO[C@@H]3[C@H](NC(=O)CC3CC3)C2)cn1 | 11.8 |
| Cc1nn(C)c2nc(N3CCNC(=O)C3C(C)C)sc12 (centres undefined) | 10.4 |
| O=S(=O)(C1CC1)N1CC[C@H](OCC2CC2)[C@@H]1Cc1cccnc1 | -4.98 |
| Cc1c(C(C)NC(=O)C2CCCC2)cnn1C (centres undefined) | 36.2 |

| Compound | cytotoxicity at 70.5 h [%] |
| --- | --- |
| Cc1ccsc1C(=O)NCCCn1nc2ccccn2c1=O | -4.38 |
| CCN1CC2(CC1=O)CN(C(=O)NC(C)C)CCN(S(C)(=O)=O)C2 (centres undefined) | -2.48 |
| CC(SCCC(=O)NC(N)=O)c1cccc(F)c1 (centres undefined) | 15.9 |
| CC(c1ccc(Cl)cc1)N1CCN(CCS(N)(=O)=O)CC1 (centres undefined) | -0.779 |
| CCNC(=O)CNC(=O)c1ccn(S(=O)(=O)c2ccc(C)cc2)c1 | 1.83 |
| O=C(N1CCOCC1)n1cnc2ccccc21 | -11.5 |
| COc1cc(CNCC(O)c2cccc(F)c2)cc2c1OCO2 (centres undefined) | 1.4 |
| COCCN(C(=O)c1cc(C)no1)c1ccc(C#N)cc1 | -8.51 |
| CN(C)c1nc2c(c(N3CCc4c(c(CO)nn4C)C3)n1)CCNC2 | 46.5 |
| CCc1nnc(CN2CCOC(Cn3cccn3)C2)o1 (centres undefined) | -8.14 |
| CC(=O)N1CCCN(CCCc2ccccc2)CC1 | -6.32 |
| OCCNc1nc(Nc2ccccc2)c2nccnc2n1 | -0.149 |
| Cc1noc(CNC(=O)c2ccccc2-n2cc(CN)cn2)n1 | -5.09 |
| CN(Cc1ccc(F)c(F)c1)C(=O)CCc1nc(-c2nnc[nH]2)no1 | -4.47 |
| c1cnc(N2CCO[C@H]3CN(CC4CCOCC4)C[C@H]32)nc1 | -3.7 |
| CC(C)n1nc2c(cc1=O)CN(Cc1nc(-c3ccco3)no1)CC2 | -5.7 |
| CC(C)c1nc(C2CCCN2CCS(=O)(=O)c2ccccc2)no1 (centres undefined) | 2.5 |
| Cc1cc(NC(=O)C2CCN(c3ncccc3C#N)CC2)no1 | 3.46 |
| CC(O)CN(CC(=O)NC(=O)NCC(F)(F)F)c1ccccc1 (centres undefined) | -11.1 |
| Cn1nccc1C(=O)N1CCC(n2cc(-c3ccsc3)nn2)CC1 | -3.85 |
| Cc1c(CN2CCC(C(=O)O)(n3cccn3)CC2)oc2ccccc12 | -2.29 |
